In patent publication US12441703B2, “Carboxamides as modulators of sodium channels” (VERTEX PHARMACEUTICALS INCORPORATED, priority 2019, dated 2025):

Target: human NaV 1.8 (Homo sapiens, UniProt Q9Y5Y9)
Experiment: E-VIPR assay for detecting and measuring NaV inhibition properties
Assay type: cell-based
Conditions: E-VIPR assay conducted in the presence of human serum; HEK cells expressing truncated human NaV 1.8; read-out: IC50
Summary of the method: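 HEK cells with truncated human NaV1.8 plus KIR2.1 BacMam, hexyl dye loaded 20 min, compound 30 min at room temperature, 11-point 3-fold series […], 0.625% DMSO, with or without human serum. E-VIPR biphasic stimulation at 10 Hz for 10 s; membrane-potential response read as normalized coumarin/oxonol ratio.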

Sequence of human NaV 1.8 (Q9Y5Y9 whole entry, looked up): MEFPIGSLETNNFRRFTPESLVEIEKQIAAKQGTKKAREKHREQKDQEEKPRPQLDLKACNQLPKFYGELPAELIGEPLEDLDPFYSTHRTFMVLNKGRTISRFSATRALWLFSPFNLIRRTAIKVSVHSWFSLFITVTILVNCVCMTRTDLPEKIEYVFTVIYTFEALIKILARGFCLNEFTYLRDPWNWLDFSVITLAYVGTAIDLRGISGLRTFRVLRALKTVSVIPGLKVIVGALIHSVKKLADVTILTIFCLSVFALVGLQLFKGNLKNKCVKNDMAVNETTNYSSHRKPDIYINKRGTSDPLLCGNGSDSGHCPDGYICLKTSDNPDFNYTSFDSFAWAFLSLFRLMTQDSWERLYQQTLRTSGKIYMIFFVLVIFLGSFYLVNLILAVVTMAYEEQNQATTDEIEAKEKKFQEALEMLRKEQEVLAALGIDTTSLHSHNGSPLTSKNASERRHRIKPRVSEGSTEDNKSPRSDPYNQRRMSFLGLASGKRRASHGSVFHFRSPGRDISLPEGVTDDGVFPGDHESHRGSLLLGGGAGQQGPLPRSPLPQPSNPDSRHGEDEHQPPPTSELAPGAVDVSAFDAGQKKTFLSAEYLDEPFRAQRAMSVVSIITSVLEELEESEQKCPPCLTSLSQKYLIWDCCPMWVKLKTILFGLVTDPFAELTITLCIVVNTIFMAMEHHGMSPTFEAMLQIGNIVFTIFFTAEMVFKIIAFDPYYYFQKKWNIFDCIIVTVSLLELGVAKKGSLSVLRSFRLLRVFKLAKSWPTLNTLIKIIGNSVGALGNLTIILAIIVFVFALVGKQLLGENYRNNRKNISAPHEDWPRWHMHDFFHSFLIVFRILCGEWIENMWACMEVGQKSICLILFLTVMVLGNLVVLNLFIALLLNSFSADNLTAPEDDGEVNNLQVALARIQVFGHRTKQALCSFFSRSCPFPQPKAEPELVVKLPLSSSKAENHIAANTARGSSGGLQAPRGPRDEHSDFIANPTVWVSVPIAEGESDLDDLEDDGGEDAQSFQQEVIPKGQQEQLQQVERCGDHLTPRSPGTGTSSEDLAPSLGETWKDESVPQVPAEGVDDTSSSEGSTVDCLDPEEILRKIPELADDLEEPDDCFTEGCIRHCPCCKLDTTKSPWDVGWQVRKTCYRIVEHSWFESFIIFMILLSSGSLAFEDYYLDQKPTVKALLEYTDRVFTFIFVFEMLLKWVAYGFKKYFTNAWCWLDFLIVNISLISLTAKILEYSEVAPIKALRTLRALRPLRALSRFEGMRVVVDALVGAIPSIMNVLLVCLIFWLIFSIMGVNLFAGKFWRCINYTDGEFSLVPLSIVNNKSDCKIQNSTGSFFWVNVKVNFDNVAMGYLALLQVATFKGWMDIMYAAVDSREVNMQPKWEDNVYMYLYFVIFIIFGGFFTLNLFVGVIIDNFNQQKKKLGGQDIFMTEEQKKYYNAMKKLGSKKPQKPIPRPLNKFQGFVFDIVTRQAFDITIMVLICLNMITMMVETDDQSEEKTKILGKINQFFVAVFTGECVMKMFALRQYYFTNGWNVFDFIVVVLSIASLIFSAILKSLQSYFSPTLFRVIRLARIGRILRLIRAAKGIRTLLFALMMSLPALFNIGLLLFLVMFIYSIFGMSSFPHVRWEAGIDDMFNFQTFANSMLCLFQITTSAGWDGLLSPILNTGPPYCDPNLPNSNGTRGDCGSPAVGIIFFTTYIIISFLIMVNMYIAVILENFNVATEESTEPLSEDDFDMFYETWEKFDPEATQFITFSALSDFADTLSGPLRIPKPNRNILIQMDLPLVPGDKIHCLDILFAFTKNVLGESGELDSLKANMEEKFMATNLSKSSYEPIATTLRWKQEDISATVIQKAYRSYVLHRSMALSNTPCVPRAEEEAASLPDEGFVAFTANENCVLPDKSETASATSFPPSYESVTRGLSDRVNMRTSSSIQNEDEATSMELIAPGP

First: COc1c(C(F)(F)F)ccc(Oc2ccc(OC(F)(F)F)cc2Cl)c1C(=O)Nc1ccnc(C(N)=O)c1 [Compound 66, 4-[[6-[2-chloro-4-(trifluoromethoxy)phenoxy]-2-methoxy-3-(trifluoromethyl)benzoyl]amino]pyridine-2-carboxamide]
Second: CCOc1c(C(F)(F)F)ccc(Oc2ccc(OC(F)(F)F)cc2OC)c1C(=O)Nc1ccnc(C(N)=O)c1 [Compound 83, 4-[[2-ethoxy-6-[2-methoxy-4-(trifluoromethoxy)phenoxy]-3-(trifluoromethyl)benzoyl]amino]pyridine-2-carboxamide]
The IC50 of the first is 10-fold lower: 16 nM for the first, 160 nM for the second. The first is the more potent here.

Compared with `COc1c(C(F)(F)F)ccc(Oc2ccc(OC(C)C)c(F)c2)c1C(=O)Nc1ccnc(C(N)=O)c1` [Compound 67, 4-[[6-(3-fluoro-4-isopropoxy-phenoxy)-2-methoxy-3-(trifluoromethyl)benzoyl]amino]pyridine-2-carboxamide], `COc1cc(Oc2ccc(C(F)(F)F)c(OC)c2C(=O)Nc2ccnc(C(N)=O)c2)ccc1F` [Compound 69, 4-[[6-(4-fluoro-3-methoxy-phenoxy)-2-methoxy-3-(trifluoromethyl)benzoyl]amino]pyridine-2-carboxamide] is higher in IC50: 110 nM for the first, > 3000 nM for the second. The first is the more potent here.

First: COc1c(C(F)(F)F)ccc(Oc2ccc(F)c3c2OCC3)c1C(=O)Nc1ccnc(C(N)=O)c1 [Compound 68, 4-[[6-[(4-fluoro-2,3-dihydrobenzofuran-7-yl)oxy]-2-methoxy-3-(trifluoromethyl)benzoyl]amino]pyridine-2-carboxamide]
Second: NC(=O)c1cc(NC(=O)c2c(Oc3ccc(F)c4c3OCC4)cccc2C(F)(F)F)ccn1 [Compound 78, 4-[[2-[(4-fluoro-2,3-dihydrobenzofuran-7-yl)oxy]-6-(trifluoromethyl)benzoyl]amino]pyridine-2-carboxamide]
The IC50 of the first is lower: 290 nM for the first, > 3000 nM for the second. The first is the more potent here.

First: COc1c(C(F)(F)F)ccc(Oc2ccc(C(F)(F)F)nc2)c1C(=O)Nc1ccnc(C(N)=O)c1 [Compound 70, 4-[[2-methoxy-3-(trifluoromethyl)-6-[[6-(trifluoromethyl)-3-pyridyl]oxy]benzoyl]amino]pyridine-2-carboxamide]
Second: COc1cc(OC(F)(F)F)ccc1Oc1ccc(C(F)(F)F)c(OC2CC2)c1C(=O)Nc1ccnc(C(N)=O)c1 [Compound 85, 4-[[2-(cyclopropoxy)-6-[2-methoxy-4-(trifluoromethoxy)phenoxy]-3-(trifluoromethyl)benzoyl]amino]pyridine-2-carboxamide]
The IC50 of the first is higher: > 3000 nM for the first, 180 nM for the second. The second is the more potent here.

Compared with `CC(C)Oc1ccc(Oc2cccc(C(F)(F)F)c2C(=O)Nc2ccnc(C(N)=O)c2)c(F)c1F` [Compound 72, 4-[[2-(2,3-difluoro-4-isopropoxy-phenoxy)-6-(trifluoromethyl)benzoyl]amino]pyridine-2-carboxamide], `CC(C)Oc1ccc(Oc2cccc(C(F)(F)F)c2C(=O)Nc2ccnc(C(N)=O)c2)cc1F` [Compound 74, 4-[[2-(3-fluoro-4-isopropoxy-phenoxy)-6-(trifluoromethyl)benzoyl]amino]pyridine-2-carboxamide] is 2.1-fold higher in IC50: 560 nM for the first, 1200 nM for the second.

`COc1nc(Cl)ccc1Oc1cccc(C(F)(F)F)c1C(=O)Nc1ccnc(C(N)=O)c1` [Compound 73, 4-[[2-[(6-chloro-2-methoxy-3-pyridyl)oxy]-6-(trifluoromethyl)benzoyl]amino]pyridine-2-carboxamide] and `COc1cc(F)ccc1Oc1cccc(C(F)(F)F)c1C(=O)Nc1ccnc(C(N)=O)c1` [Compound 75, 4-[[2-(4-fluoro-2-methoxy-phenoxy)-6-(trifluoromethyl)benzoyl]amino]pyridine-2-carboxamide] are within 1.5-fold of each other in IC50: 1500 nM for the first, 1750 nM for the second.

`NC(=O)c1cc(NC(=O)c2c(Oc3ccc(F)cc3F)cccc2C(F)(F)F)ccn1` [Compound 77, 4-[[2-(2,4-difluorophenoxy)-6-(trifluoromethyl)benzoyl]amino]pyridine-2-carboxamide] and `NC(=O)c1cc(NC(=O)c2c(Oc3ccc(F)cc3Cl)cccc2C(F)(F)F)ccn1` [Compound 79, 4-[[2-(2-chloro-4-fluoro-phenoxy)-6-(trifluoromethyl)benzoyl]amino]pyridine-2-carboxamide] cannot be ordered by IC50: > 3000 nM for the first, > 3000 nM for the second.

`NC(=O)c1cc(NC(=O)c2c(Oc3ccc(F)c(Cl)c3)cccc2C(F)(F)F)ccn1` [Compound 80, 4-[[2-(3-chloro-4-fluoro-phenoxy)-6-(trifluoromethyl)benzoyl]amino]pyridine-2-carboxamide] and `CC(C)Oc1ccc(Oc2cccc(C(F)(F)F)c2C(=O)Nc2ccnc(C(N)=O)c2)c(F)c1` [Compound 81, 4-[[2-(2-fluoro-4-isopropoxy-phenoxy)-6-(trifluoromethyl)benzoyl]amino]pyridine-2-carboxamide] cannot be ordered by IC50: > 3000 nM for the first, > 3000 nM for the second.

Going from `COc1cc(OC(F)(F)F)ccc1Oc1ccc(C(F)(F)F)c(OCC(C)C)c1C(=O)Nc1ccnc(C(N)=O)c1` [Compound 82, 4-[[2-isobutoxy-6-[2-methoxy-4-(trifluoromethoxy)phenoxy]-3-(trifluoromethyl)benzoyl]amino]pyridine-2-carboxamide] to `COc1cc(OC(F)(F)F)ccc1Oc1ccc(C(F)(F)F)c(NCC(C)C)c1C(=O)Nc1ccnc(C(N)=O)c1` [Compound 87, 4-[[2-(isobutylamino)-6-[2-methoxy-4-(trifluoromethoxy)phenoxy]-3-(trifluoromethyl)benzoyl]amino]pyridine-2-carboxamide], the IC50 falls from > 3000 nM to 1500 nM. The second is the more potent here.

Going from `COc1cc(OC(F)(F)F)ccc1Oc1ccc(C(F)(F)F)c(OCC2CC2)c1C(=O)Nc1ccnc(C(N)=O)c1` [Compound 84, 4-[[2-(cyclopropylmethoxy)-6-[2-methoxy-4-(trifluoromethoxy)phenoxy]-3-(trifluoromethyl)benzoyl]amino]pyridine-2-carboxamide] to `COc1cc(OC(F)(F)F)ccc1Oc1ccc(C(F)(F)F)c(OCC2CC2(F)F)c1C(=O)Nc1ccnc(C(N)=O)c1` (stereo not drawn) [Compound 86, 4-[[2-[(2,2-difluorocyclopropyl)methoxy]-6-[2-methoxy-4-(trifluoromethoxy)phenoxy]-3-(trifluoromethyl)benzoyl]amino]pyridine-2-carboxamide], the IC50 rises from 625 nM to 1000 nM (1.6-fold).

`[2H]C([2H])([2H])Oc1cc(OC(F)(F)F)ccc1Oc1cc(-c2ccc(C)cc2)cc(F)c1C(=O)Nc1ccnc(C(N)=O)c1` [Compound 88, 4-[[2-fluoro-4-(p-tolyl)-6-[2-(trideuteriomethoxy)-4-(trifluoromethoxy)phenoxy]benzoyl]amino]pyridine-2-carboxamide] and `[2H]C([2H])([2H])Oc1cc(OC(F)(F)F)ccc1Oc1cc(-c2ccc(F)cc2)cc(F)c1C(=O)Nc1ccnc(C(N)=O)c1` [Compound 89, 4-[[2-fluoro-4-(4-fluorophenyl)-6-[2-(trideuteriomethoxy)-4-(trifluoromethoxy)phenoxy]benzoyl]amino]pyridine-2-carboxamide] are within 1.5-fold of each other in IC50: 39 nM for the first, 36 nM for the second.

Going from `[2H]C([2H])([2H])Oc1cc(OC(F)(F)F)ccc1Oc1cc(-c2cccnc2)cc(F)c1C(=O)Nc1ccnc(C(N)=O)c1` [Compound 90, 4-[[2-fluoro-4-(3-pyridyl)-6-[2-(trideuteriomethoxy)-4-(trifluoromethoxy)phenoxy]benzoyl]amino]pyridine-2-carboxamide] to `[2H]C([2H])([2H])Oc1cc(OC(F)(F)F)ccc1Oc1cc(-c2ccncc2)cc(F)c1C(=O)Nc1ccnc(C(N)=O)c1` [Compound 91, 4-[[2-fluoro-4-(4-pyridyl)-6-[2-(trideuteriomethoxy)-4-(trifluoromethoxy)phenoxy]benzoyl]amino]pyridine-2-carboxamide], the IC50 rises from 210 nM to 440 nM (2.1-fold).
